Test results published in patent US20170037028A1 (BAYER PHARMA AKTIENGESELLSCHAFT, priority 2013, published 2017).

Target: T1, GLUT1 (Homo sapiens, UniProt P11166)
T1 sequence (P11166 1-492): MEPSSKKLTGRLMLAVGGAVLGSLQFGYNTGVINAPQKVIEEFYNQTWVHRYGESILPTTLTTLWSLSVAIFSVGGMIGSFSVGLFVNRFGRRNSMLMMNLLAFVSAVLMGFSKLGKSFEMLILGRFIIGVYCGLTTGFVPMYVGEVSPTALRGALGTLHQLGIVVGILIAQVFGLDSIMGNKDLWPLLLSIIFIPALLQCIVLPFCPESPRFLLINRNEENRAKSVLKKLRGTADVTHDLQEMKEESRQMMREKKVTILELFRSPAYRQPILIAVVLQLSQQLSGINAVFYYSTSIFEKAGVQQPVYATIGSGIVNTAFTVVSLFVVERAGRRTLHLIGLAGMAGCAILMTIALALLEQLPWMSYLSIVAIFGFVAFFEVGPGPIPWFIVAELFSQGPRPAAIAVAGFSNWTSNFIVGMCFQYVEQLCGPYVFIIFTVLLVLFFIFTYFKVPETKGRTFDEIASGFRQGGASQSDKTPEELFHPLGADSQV
Assay: Indirect measurement of GLUT1 activity by quantification of intracellular ATP levels (glucose induced ATP increase)
Assay type: cell-based
Design: endogenous in cells; host or cells: DLD1 or CHO-K1
Settings: read-out: IC50 regarding glucose induced ATP increase (GLUT1 inhibition)
Summary of the method: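 Intracellular ATP was measured by CellTiter-Glo luminescence as an indirect readout of transport: glucose-driven for GLUT1, fructose-driven for GLUT2. DLD1 or CHO-K1 cells were used alongside an oxidative phosphorylation inhibitor. Beforehand, cells were held overnight in glucose-free 1% FCS medium to deplete ATP.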

| SMILES | IC50 |
| --- | --- |
| Cc1nn(Cc2ccc(F)cc2)c(C)c1NC(=O)c1cc(C(F)(F)F)nc2ccc(C(F)(F)F)cc12 [Example 98, N-[1-(4-fluorobenzyl)-3,5-dimethyl-1H-pyrazol-4-yl]-2,6-bis(trifluoromethyl)quinoline-4-carboxamide] | 362 nM |
| Cc1nn(Cc2ccc(F)cc2)c(C)c1NC(=O)c1cc(Cl)nc2ccccc12 [Example 99, 2-chloro-N-[1-(4-fluorobenzyl)-3,5-dimethyl-1H-pyrazol-4-yl]quinoline-4-carboxamide] | 364 nM |
| Cc1nn(Cc2ccc(F)cc2)c(C)c1NC(=O)c1cc(C2CC2)nc2cc(Br)ccc12 [Example 100, 7-bromo-2-cyclopropyl-N-[1-(4-fluorobenzyl)-3,5-dimethyl-1H-pyrazol-4-yl]quinoline-4-carboxamide] | 371 nM |
| Cc1cccc(Cn2nc(C)c(NC(=O)c3cc(C)nc4ccc(C)cc34)c2C)c1 [Example 101, N-[3,5-dimethyl-1-(3-methylbenzyl)-1H-pyrazol-4-yl]-2,6-dimethylquinoline-4-carboxamide] | 396 nM |
| Cc1cc(C#N)c2nc(C(F)(F)F)cc(C(=O)Nc3c(C)nn(Cc4ccc(F)cc4)c3C)c2c1 [Example 102, 8-cyano-N-[1-(4-fluorobenzyl)-3,5-dimethyl-1H-pyrazol-4-yl]-6-methyl-2-(trifluoromethyl)quinoline-4-carboxamide] | 446 nM |
| Cc1nn(Cc2ccc(F)cc2)c(C)c1NC(=O)c1cc(C(F)(F)F)nc2ccc(C#N)cc12 [Example 103, 6-cyano-N-[1-(4-fluorobenzyl)-3,5-dimethyl-1H-pyrazol-4-yl]-2-(trifluoromethyl)quinoline-4-carboxamide] | 462 nM |
| Cc1nn(Cc2cccc(F)c2)c(C)c1NC(=O)c1cc(C(F)(F)F)nc2c(Cl)cc(Cl)cc12 [Example 104, 6,8-dichloro-N-[1-(3-fluorobenzyl)-3,5-dimethyl-1H-pyrazol-4-yl]-2-(trifluoromethyl)quinoline-4-carboxamide] | 519 nM |
| Cc1cc(C(=O)Nc2c(C)nn(Cc3ccc(F)cc3)c2C)c2ccccc2n1 [Example 105, N-[1-(4-fluorobenzyl)-3,5-dimethyl-1H-pyrazol-4-yl]-2-methylquinoline-4-carboxamide] | 528 nM |
| Cc1nn(Cc2ccc(F)cc2)c(C)c1NC(=O)c1cc(C(F)(F)F)nc2cc(Cl)c(Cl)cc12 [Example 106, 6,7-dichloro-N-[1-(4-fluorobenzyl)-3,5-dimethyl-1H-pyrazol-4-yl]-2-(trifluoromethyl)quinoline-4-carboxamide] | 571 nM |
| Cc1ccc2nc(C)cc(C(=O)Nc3c(C)nn(Cc4ccc(C(F)(F)F)cc4)c3C)c2c1 [Example 107, N-{3,5-dimethyl-1-[4-(trifluoromethyl)benzyl]-1H-pyrazol-4-yl}-2,6-dimethylquinoline-4-carboxamide] | 593 nM |
| Cc1nn(Cc2ccc(F)cc2)c(C)c1NC(=O)c1cc(C2CC2)nc2c(C(F)(F)F)cccc12 [Example 108, 2-cyclopropyl-N-[1-(4-fluorobenzyl)-3,5-dimethyl-1H-pyrazol-4-yl]-8-(trifluoromethyl)quinoline-4-carboxamide] | 671 nM |
| COc1cccc(Cn2nc(C)c(NC(=O)c3cc(C)nc4ccc(C)cc34)c2C)c1 [Example 109, N-[1-(3-methoxybenzyl)-3,5-dimethyl-1H-pyrazol-4-yl]-2,6-dimethylquinoline-4-carboxamide] | 688 nM |
| COc1cc(C(=O)Nc2c(C)nn(Cc3ccccn3)c2C)c2ccccc2n1 [Example 110, N-[3,5-dimethyl-1-(pyridin-2-ylmethyl)-1H-pyrazol-4-yl]-2-methoxyquinoline-4-carboxamide] | 708 nM |
| Cc1ccc2nc(C)cc(C(=O)Nc3c(C)nn(Cc4ccccc4C)c3C)c2c1 [Example 111, N-[3,5-dimethyl-1-(2-methylbenzyl)-1H-pyrazol-4-yl]-2,6-dimethylquinoline-4-carboxamide] | 708 nM |
| Cc1ccc2nc(C)cc(C(=O)Nc3c(C)nn(Cc4ccccc4F)c3C)c2c1 [Example 112, N-[1-(2-fluorobenzyl)-3,5-dimethyl-1H-pyrazol-4-yl]-2,6-dimethylquinoline-4-carboxamide] | 771 nM |
| Cc1nn(Cc2cccc(OC(F)(F)F)c2)c(C)c1NC(=O)c1cc(C(F)(F)F)nc2ccc(Br)cc12 [Example 113, 6-bromo-N-{3,5-dimethyl-1-[3-(trifluoromethoxy)benzyl]-1H-pyrazol-4-yl}-2-(trifluoromethyl)quinoline-4-carboxamide] | 813 nM |

| SMILES | IC50 |
| --- | --- |
| Cc1ccc2nc(C)cc(C(=O)Nc3c(C)nn(Cc4ccccc4C#N)c3C)c2c1 [Example 114, N-[1-(2-cyanobenzyl)-3,5-dimethyl-1H-pyrazol-4-yl]-2,6-dimethylquinoline-4-carboxamide] | 833 nM |
| COc1cc(C(=O)Nc2c(C)nn(Cc3cccc(OC(F)(F)F)c3)c2C)c2ccccc2n1 [Example 115, N-{3,5-dimethyl-1-[3-(trifluoromethoxy)benzyl]-1H-pyrazol-4-yl}-2-methoxyquinoline-4-carboxamide] | 833 nM |
| Cc1cccnc1Cn1nc(C)c(NC(=O)c2cc(C(F)(F)F)nc3ccc(Br)cc23)c1C [Example 116, 6-bromo-N-{3,5-dimethyl-1-[(3-methylpyridin-2-yl)methyl]-1H-pyrazol-4-yl}-2-(trifluoromethyl)quinoline-4-carboxamide] | 889 nM |
| Cc1ccc2nc(C)cc(C(=O)Nc3c(C)nn(Cc4cccc(OC(F)(F)F)c4)c3C)c2c1 [Example 117, N-{3,5-dimethyl-1-[3-(trifluoromethoxy)benzyl]-1H-pyrazol-4-yl}-2,6-dimethylquinoline-4-carboxamide] | 938 nM |
| Cc1nn(Cc2ccccc2C#N)c(C)c1NC(=O)c1cc(C(C)C)nc2ccc(Br)cc12 [Example 118, 6-bromo-N-[1-(2-cyanobenzyl)-3,5-dimethyl-1H-pyrazol-4-yl]-2-(propan-2-yl)quinoline-4-carboxamide] | 0.5 nM |
| Cc1nn(Cc2ccc(F)cc2)c(C)c1NC(=O)c1cc(C(N)=O)nc2ccc(Br)cc12 [Example 119, 6-bromo-N^4-[1-(4-fluorobenzyl)-3,5-dimethyl-1H-pyrazol-4-yl]quinoline-2,4-dicarboxamide] | 1.3 nM |
| Cc1nn(Cc2ccc(F)cc2)c(C)c1NC(=O)c1cc(C(N)=O)nc2cc(F)c(F)cc12 [Example 120, 6,7-difluoro-N^4-[1-(4-fluorobenzyl)-3,5-dimethyl-1H-pyrazol-4-yl]quinoline-2,4-dicarboxamide] | 1.5 nM |
| Cc1nn(Cc2ccc(F)cc2)c(C)c1NC(=O)c1cc(C(F)(F)F)nc2cc(F)c(Cl)cc12 [Example 121, 6-chloro-7-fluoro-N-[1-(4-fluorobenzyl)-3,5-dimethyl-1H-pyrazol-4-yl]-2-(trifluoromethyl)quinoline-4-carboxamide] | 1.7 nM |
| Cc1nn(Cc2ccc(F)cc2)c(C)c1NC(=O)c1cc(C(N)=O)nc2ccccc12 [Example 122, N^4-[1-(4-fluorobenzyl)-3,5-dimethyl-1H-pyrazol-4-yl]quinoline-2,4-dicarboxamide] | 1.9 nM |
| Cc1nn(Cc2ccc(F)c(F)c2)c(C)c1NC(=O)c1cc(C2CC2)nc2ccc(Br)cc12 [Example 123, 6-bromo-2-cyclopropyl-N-[1-(3,4-difluorobenzyl)-3,5-dimethyl-1H-pyrazol-4-yl]quinoline-4-carboxamide] | 2 nM |
| Cc1nn(Cc2ccc(F)cc2)c(C)c1NC(=O)c1cc(C(F)(F)F)nc2cc(F)c(Br)cc12 [Example 124, 6-bromo-7-fluoro-N-[1-(4-fluorobenzyl)-3,5-dimethyl-1H-pyrazol-4-yl]-2-(trifluoromethyl)quinoline-4-carboxamide] | 2.3 nM |
| Cc1nn(Cc2ccc(F)cc2)c(C)c1NC(=O)c1cc(C2CC2)nc2ccc(Cl)cc12 [Example 125, 6-chloro-2-cyclopropyl-N-[1-(4-fluorobenzyl)-3,5-dimethyl-1H-pyrazol-4-yl]quinoline-4-carboxamide] | 2.5 nM |
| Cc1nn(Cc2ccc(F)cc2)c(C)c1NC(=O)c1cc(C(N)=O)nc2c(Cl)cc(Cl)cc12 [Example 127, 6,8-dichloro-N^4-[1-(4-fluorobenzyl)-3,5-dimethyl-1H-pyrazol-4-yl]quinoline-2,4-dicarboxamide] | 3.1 nM |
| Cc1c(NC(=O)c2cc(C(N)=O)nc3ccccc23)c(C(F)(F)F)nn1Cc1ccc(F)c(F)c1 [Example 128, N^4-[1-(3,4-difluorobenzyl)-5-methyl-3-(trifluoromethyl)-1H-pyrazol-4-yl]quinoline-2,4-dicarboxamide] | 3.3 nM |
| Cc1nn(Cc2ccc(F)c(F)c2)c(C)c1NC(=O)c1cc(C(C)C)nc2ccc(Br)cc12 [Example 129, 6-bromo-N-[1-(3,4-difluorobenzyl)-3,5-dimethyl-1H-pyrazol-4-yl]-2-(propan-2-yl)quinoline-4-carboxamide] | 4.1 nM |
| Cc1c(NC(=O)c2cc(C(N)=O)nc3ccccc23)c(C(F)(F)F)nn1Cc1ccc(F)cc1 [Example 130, N^4-[1-(4-fluorobenzyl)-5-methyl-3-(trifluoromethyl)-1H-pyrazol-4-yl]quinoline-2,4-dicarboxamide] | 4.6 nM |
